Measurements from patent US20220296610A1, “COMPOSITIONS AND METHODS FOR TREATMENT OF INFECTION AND NOVEL COSMECEUTICAL PREPARATIONS” (priority 2017, published 2022).
“And” between values parts separate entries of the source, which are not always exact repeats. Identical values can stand only once. “Also recorded” adds a separate entry of the source.

Key:
[1] = system: canine basal cell carcinoma; assay type: in vivo, dog
Text: Differential diagnoses included virus induced lesions such as warts which are caused by papillomaviruses, and are thus an example of anti-microbial/anti-viral activity.

Soft tissue sarcoma = experiment: Intratumoral treatment of canine cancer patient, soft tissue sarcoma; assay type: in vivo, dog; conditions: Patient #2
Procedure: (§1) A study was performed using NVX-207 on a canine squamous cell carcinoma of the nasal plane. […] Histology was confirmed by biopsy before treatment. Prior to each treatment, the dog was physically examined and routine blood counts and serum chemistry analyses were performed. Tumor measurements were obtained using callipers at each treatment. Tumor size was determined by the longest diameter of the target lesion or by calculating the mean of the longest diameters of the lesion treated. Tumor response was classified as stable (less than 50% change), partial—(decrease by >50%) or as a complete response if no palpable or visible evidence of tumor was available. Intralesional treatment of the patient comprised local infiltration of the local tumor, including 1 cm of the surrounding tissue, with NVX-207 in combination with cisplatin. […] Tumor recurrence was observed 18 months later. […] No further complications were observed.
(§2) Patients 1, 2, and 3 correspond to the dogs described above with squamous, soft tissue, and mammary carcinoma, respectively. Tumor size and tumor responses were determined as in described above. Intralesional treatment of the patients comprised local infiltration of the local tumor including 1 cm of the surrounding tissue—if applicable—with NVX-207 alone (for patients #2-#4) or in combination with cisplatin (patient #1, see also FIG. 3). […]

Mammary carcinoma = experiment: Intratumoral treatment of canine cancer patient, mammary carcinoma; assay type: in vivo, dog; conditions: Patient #3, NVX-207 alone 10 mg/ml in 2-hydroxypropyl-γ-cyclodextrin
Procedure: as §1, §2

[2] = system: Sweat gland adenocarcinoma; experiment: Intratumoral treatment of canine cancer patient, sweat gland adenocarcinoma; assay type: in vivo, dog; conditions: Patient #4, NVX-207 alone 10 mg/ml in 2-hydroxypropyl-γ-cyclodextrin
Procedure: as §1, §2

canine cancer patients = experiment: Inflammation and infection after repeated intralesional injections in dogs; assay type: in vivo, dog; conditions: intratumoral treatment of canine malignancies
Text: FIGS. 3A-D show the effects of intratumoral treatment of NVX-207 in various spontaneously arising canine malignancies (before and after pictures). […] FIGS. 3B-D show NVX-207 treatment effects in a canine mammary carcinoma and two separate cases of soft tissue sarcoma, respectively. […] Microbial infections (with bacteria, fungi, viruses or protozoa) usually almost invariably accompany multiple injections under similar non-sterile conditions, because the coat of the animal cannot be efficiently sterilized. This in turn leads to unwanted treatment interruptions.
FIGS. 3B-D show NVX-207 treatment effects in a canine mammary carcinoma and two separate cases of soft tissue sarcoma, respectively. […] Microbial infections (with bacteria, fungi, viruses or protozoa) usually almost invariably accompany multiple injections under similar non-sterile conditions, because the coat of the animal cannot be efficiently sterilized. This in turn leads to unwanted treatment interruptions.
As noted above, strong evidence for an antibacterial activity of NVX-207 also comes from the canine cancer treatments. Dogs were treated over several months by repeated intralesional and peritumoral injections of NVX-207. […] This is highly unusual, since intralesional treatments under the same conditions are usually associated with a high incidence of serious local soft tissue infections leading to treatment interruptions. […]

[3] = system: human umbilical vein endothelial cells (HUVEC); experiment: Survival of endothelial cell cultures at 80% and 30% confluency; assay type: cell-based; conditions: 2.5 μM
Procedure: (§3) All cells were treated with 2.5 μM NVX-207. Percentage (means±S.E., n=3) of control-treated cells are given. […] Mean survival in NVX-207 treated fibroblasts at 80% confluency was 92% (S.E.=3.8) versus 3.8% mean survival (S.E.=0.4) at 30% confluency. […] HUVECs, keratinocytes and fibroblast cells were obtained from Lonza GmbH (Wuppertal, Germany) and cultivated according to the manufacturer's instructions.
(§4) The IC50 value of betulinic acid in human keratinocytes was recently determined to be ˜5.0 μg/ml (Tino Galgon al., Exp Dermatol. 14:736-43, 2005), while the IC50 of NVX-207 is ˜0.7 μg/ml. Consequently, the IC50 value of NVX-207 was almost 10-fold lower compared to betulinic acid on a molar basis. […] Under normal physiological circumstances, the endothelium, as well as fibroblasts and keratinocytes of the tissue like normal skin, show relatively low turn-over and limited cell divisions to maintain tissue integrity. […] Angiogenesis also plays a role in the pathogenesis of rosacea and a topical angiogenesis inhibitor (dobesilate) for treatment of rosacea has been described. Local inhibition of angiogenic factors function may prevent skin angiogenesis and inflammation in rosacea and other angiogenesis-dependent skin diseases in which a dense network of new vessels is produced and inflammatory cells are present. […]

human fibroblasts = experiment: Survival of fibroblast cultures at 80% and 30% confluency; assay type: cell-based; conditions: 2.5 μM; 30% vs 80% confluency
Procedure: as §3, §4

human keratinocytes = experiment: Survival of keratinocyte cultures at 80% and 30% confluency; assay type: cell-based; conditions: 2.5 μM; 30% vs 80% confluency
Procedure: as §3, §4

[4] = system: bacteria obtained from the skin surface of an individual; experiment: Filter disk growth inhibition on LB-agar plates; assay type: cell-based
Procedure: 10 mm filter disks (numbered 1 to 4) were soaked in 10 μl of 10.0, 5.0, 2.5, and 1.25 mg/ml of NVX-207, respectively, and placed on LB-Agar plates on which a skin bacterial isolate had been plated. 15 ml of LB/Agar was used for pouring one plate. Control disks were soaked in 10 μl of the corresponding solvent and paced in the center of the plates. LB-Agar plates were then cultivated over night at 30° C. and bacterial growth was monitored by comparing growth inhibition zones around the soaked disks. […]
Antibacterial effects of NVX-207 were tested against bacteria obtained from the skin surface of an individual. NVX-207 was used either as a cyclodextrin formulation (NVX-207 (at 10 mg/ml final concentration) was formulated in 2-hydroxypropyl-gamma-cyclodextrin (at 150 mg/ml final concentration) in water) (FIG. 6A), or a Tween 80/Ethanol formulation (described in Example 2) (FIG. 6B). Filter disks 1 to 4 were soaked in 10 μl of 10.0, 5.0, 2.5, and 1.25 mg/ml of NVX-207, respectively, and placed on LB-agar plates (total volume of 15 ml LB-agar per plate) on which a skin bacterial isolate had been plated at low density. Control disks placed in the center of the plates were soaked in 10 μl of the corresponding solvent. LB-Agar plates were then cultivated over night at 30° C. and bacterial growth was examined after 18 hours. […]

[5] = system: human hyperkeratotic lesion with an inflammatory component; experiment: Topical treatment of human hyperkeratotic lesion; assay type: in vivo; conditions: 1% topical solution
pig skin = conditions: in vivo, 2 weeks
Text: Skin areas were visually inspected every day.
Skin areas were visually inspected every day. Photographs were taken at three day intervals. […] On day 14, pigs were anesthetized with ketamine and azaperon, and euthanized by intracardial application of T61®.

SMILES: C=C(C)[C@@H]1CC[C@]2(C(=O)OCC(N)(CO)CO)CC[C@]3(C)[C@H](CC[C@@H]4[C@@]5(C)CC[C@H](OC(C)=O)C(C)(C)[C@@H]5CC[C@]43C)[C@@H]12 [NVX-207, 3-O-acetylbetulinic acid-2-amino-3-hydroxy-2-hydroxymethylpropyl ester]
- reduction of lesion ([1]; 1% topical solution every second to third day, after 3 weeks): about 90%
- inflammation or infection at the treatment site ([1]; dog, in vivo): absence of inflammation or infection
- OS, overall survival time (Soft tissue sarcoma): 15 months
- Tumor response (Soft tissue sarcoma; NVX-207 alone 10 mg/ml in 2-hydroxypropyl-γ-cyclodextrin, intratumoral): PR (PR, partial remission)
- Tumor response (Mammary carcinoma): SD (SD, stable disease)
- Tumor response [2]: SD (SD, stable disease)
- treatment-related inflammation (canine cancer patients): completely prevented
- more effective in sub-confluent (30%) than nearly confluent (80%) endothelial cells [3]: ~5 fold
- more active against proliferating human fibroblasts (human fibroblasts): over 20 fold
- more active against proliferating keratinocytes (human keratinocytes): ~6 fold
- estimated concentration at which strong inhibitory effects were seen ([4]; Tween/Ethanol formulation, assumed distribution volume ~2.5 ml): 1 µg/mL and 1.0 µg/mL
- final concentration at which growth inhibition was seen ([4]; cyclodextrin formulation, distribution volume approximately 1 ml): ~100 µg/mL
- side effects on treated skin [5]: No deleterious (toxic) effects; also recorded: no reddening, inflammation or any side effects
- reduction of lesion ([5]; next day after only one treatment): > 80%
- macroscopic skin irritations (pig skin): No macroscopic NVX-207 related skin irritations
